Results published in PubChem BioAssay (NCI).
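Cells were grown in 96-well plates and exposed to each compound for 48 hours at five concentrations; endpoints were interpolated linearly between bracketing concentrations, or set to the highest concentration if not reached. GI50: concentration for 50% inhibition of growth. Definition used: TGI = concentration required for complete inhibition of growth.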

Tests used:
Test in all cases: inhibition of tumour cell growth, NCI panel, 48 h
[1] = tested on: M19-MEL melanoma
[2] = tested on: HCT-116 colon
[3] = tested on: COLO 205 colon
[4] = tested on: 786-0 renal
[5] = tested on: KM20L2 colon
[6] = tested on: IGROV1 ovarian
[7] = tested on: HCC-2998 colon
[8] = tested on: SR leukemia
[9] = tested on: PC-3 prostate
[10] = tested on: MDA-MB-435

## O=C(O)C1=C(C(=O)O)Oc2ccccc2O1
[1]
  TGI: > 100 µM
[2]
  TGI: > 100 µM
[3]
  TGI: > 100 µM
[4]
  TGI: > 100 µM
[5]
  TGI: > 100 µM
[6]
  TGI: > 100 µM
[7]
  TGI: > 100 µM
[8]
  TGI: > 100 µM

## CC1=C(C(=O)CC(=O)C(=O)Nc2ccccc2C)Sc2ccccc2N1
[1]
  TGI: > 100 µM
[2]
  TGI: > 55.8 µM
[3]
  TGI: > 61.6 µM
[4]
  TGI: > 69.1 µM
[5]
  TGI: > 100 µM
[6]
  TGI: > 100 µM
[7]
  TGI: > 100 µM
[8]
  TGI: > 100 µM

## NNC(=O)N/N=C1\CNC(=O)C(=O)C1c1nc2ccccc2s1 (stereo not drawn)
[1]
  TGI: > 100 µM
[2]
  TGI: > 100 µM
[3]
  TGI: > 100 µM
[4]
  TGI: > 100 µM
[5]
  TGI: > 100 µM
[6]
  TGI: > 100 µM
[7]
  TGI: > 100 µM

## O=S(=O)(Cc1ccccc1)SCc1ccccc1
[1]
  TGI: 53.9 µM
[2]
  TGI: 35.4 µM
[3]
  TGI: 34.3 µM
[4]
  TGI: 51.5 µM
[5]
  TGI: 40.1 µM
[6]
  TGI: > 84.7 µM
[7]
  TGI: 55.2 µM
[8]
  TGI: > 66.4 µM

## Nc1c(-c2nc3ccccc3s2)[n+]([O-])c2ccccc2[n+]1[O-]
[1]
  TGI: 84.2 µM
[2]
  TGI: 63.9 µM
[3]
  TGI: > 100 µM
[4]
  TGI: > 100 µM
[5]
  TGI: > 100 µM
[6]
  TGI: > 100 µM
[7]
  TGI: > 100 µM

## O=C1c2ccoc2C(=O)c2oc(=O)ccc21
[1]
  TGI: 2.9 µM
[2]
  TGI: 10.3 µM
[3]
  TGI: > 55.4 µM
[4]
  TGI: 30.8 µM
[5]
  TGI: > 65.4 µM
[6]
  TGI: 40 µM
[7]
  TGI: > 59 µM
[8]
  TGI: 3.83 µM

## Cc1c(C)c2ccc(OC(C)C(=O)O)cc2oc1=O (stereo not drawn)
[1]
  TGI: > 100 µM
[2]
  TGI: > 100 µM
[3]
  TGI: > 100 µM
[4]
  TGI: > 100 µM
[5]
  TGI: > 100 µM
[6]
  TGI: > 100 µM
[7]
  TGI: > 100 µM
[8]
  TGI: > 100 µM

## Cn1cc(NC(=O)c2cc(NC(=O)CCCCCCCC(=O)Nc3cc(C(=O)Nc4cc(C(=O)NCCC(=N)N)n(C)c4)n(C)c3)cn2C)cc1C(=O)NCCC(=N)N
[1]
  TGI: 16.7 µM
[2]
  TGI: 42.3 µM
[3]
  TGI: 26 µM
[4]
  TGI: > 100 µM
[5]
  TGI: > 100 µM
[6]
  TGI: 25.3 µM
[7]
  TGI: 30.2 µM
[8]
  TGI: 92.7 µM

## Nc1ncnc2sc(Nc3ccccc3)nc12
[1]
  TGI: > 100 µM
[3]
  TGI: > 100 µM
[4]
  TGI: > 100 µM
[5]
  TGI: > 100 µM
[6]
  TGI: > 100 µM
[7]
  TGI: > 100 µM
[8]
  TGI: > 100 µM

## CCOc1ccc(/C=C2/C(=O)N=C(N)N=C2N)cc1OCC
[1]
  TGI: > 100 µM
[2]
  TGI: > 100 µM
[3]
  TGI: > 100 µM
[4]
  TGI: > 100 µM
[5]
  TGI: > 100 µM
[6]
  TGI: > 100 µM
[7]
  TGI: > 100 µM
[8]
  TGI: > 100 µM

## Nc1nc(-c2ccccc2)cc(-c2cc(Cl)ccc2O)n1
[2]
  TGI: > 100 µM
[3]
  TGI: > 100 µM
[4]
  TGI: > 100 µM
[5]
  TGI: > 100 µM
[6]
  TGI: > 100 µM
[7]
  TGI: > 100 µM
[8]
  TGI: > 100 µM

## Cc1cc(OC(=O)c2c(C)cc(OC(=O)c3c(C)cc(O)cc3O)cc2O)cc(O)c1C(=O)O
[1]
  TGI: > 100 µM
[3]
  TGI: > 100 µM
[4]
  TGI: > 100 µM
[5]
  TGI: > 100 µM
[6]
  TGI: > 100 µM
[7]
  TGI: > 100 µM

## O=C(Nc1ccc(Cl)c(Cl)c1)C1C(=O)N(c2ccc(Cl)c(Cl)c2)C(=O)/C1=N\O (stereo not drawn)
[1]
  TGI: > 100 µM
[2]
  TGI: > 100 µM
[3]
  TGI: 41.9 µM
[4]
  TGI: > 100 µM
[5]
  TGI: > 100 µM
[6]
  TGI: > 100 µM
[7]
  TGI: > 100 µM

## O=C(NN1C(=O)C(Cl)C1c1c(O)ccc2ccccc12)c1ccccc1O (stereo not drawn)
[1]
  TGI: > 100 µM
[2]
  TGI: > 100 µM
[4]
  TGI: > 100 µM
[6]
  TGI: > 100 µM

## CC(C)(C)c1cc(C(OCCl)(C(F)(F)F)C(F)(F)F)c2c(c1)C(C(F)(F)F)(C(F)(F)F)OC21c2ccccc2C(=O)c2ccccc21
[1]
  TGI: > 100 µM
[2]
  TGI: > 100 µM
[3]
  TGI: > 100 µM
[4]
  TGI: > 100 µM
[5]
  TGI: > 100 µM
[7]
  TGI: > 100 µM
[8]
  TGI: > 100 µM

## CN(C)CCNC(=O)c1cccc2cc3ccc4ccccc4c3nc12
[1]
  TGI: 0.235 µM
[2]
  TGI: 1.05 µM
[3]
  TGI: 0.25 µM
[4]
  TGI: 1.37 µM
[5]
  TGI: 0.988 µM
[6]
  TGI: 1.05 µM
[7]
  TGI: 0.252 µM
[8]
  TGI: 0.147 µM

## COC(=O)c1cc2ccccc2c2nc3ccccc3c(Cl)c12
[1]
  TGI: > 100 µM
[2]
  TGI: > 100 µM
[3]
  TGI: > 100 µM
[4]
  TGI: > 100 µM
[5]
  TGI: 29 µM
[6]
  TGI: > 100 µM
[7]
  TGI: > 100 µM
[8]
  TGI: > 100 µM

## CC1(C)OC2OC(COC(=O)C(c3ccccc3)c3ccccc3)C3OC(C)(C)OC3C2O1 (stereo not drawn)
[1]
  TGI: > 100 µM
[3]
  TGI: > 100 µM
[4]
  TGI: > 100 µM
[5]
  TGI: > 100 µM
[6]
  GI50: > 100 µM
  TGI: > 100 µM
[7]
  GI50: > 100 µM
  TGI: > 100 µM

## O=c1[nH]c(=O)n(C2CC(O)C(O)C(CO)O2)cc1F (stereo not drawn)
[1]
  TGI: > 100 µM
[2]
  TGI: > 100 µM
[3]
  TGI: > 100 µM
[4]
  TGI: > 100 µM
[5]
  TGI: > 100 µM
[6]
  TGI: > 100 µM
[7]
  TGI: > 100 µM

## CCN(CCNc1ccc(C)c2sc3cc(Cl)ccc3c(=O)c12)CC(C)(C)O
[9]
  GI50: 12 µM
  TGI: > 100 µM
[2]
  GI50: 4.94 µM
  TGI: 18.2 µM
[3]
  GI50: 1.89 µM
  TGI: 3.94 µM
[4]
  GI50: 5.13 µM
  TGI: 17.7 µM
[6]
  GI50: 2.68 µM
  TGI: 19.1 µM
[7]
  GI50: 2.02 µM
  TGI: 4.08 µM
[10]
  GI50: 2 µM
  TGI: 4.59 µM
[8]
  GI50: 9.48 µM
  TGI: > 100 µM

## Nc1c(C(=O)Nc2ccccn2)sc2nc3c(cc12)CCCCCC3
[9]
  GI50: 1.54 µM
  TGI: 12.2 µM
[2]
  GI50: 0.225 µM
  TGI: 7.14 µM
[3]
  GI50: 1.49 µM
  TGI: 13.6 µM
[4]
  GI50: 0.776 µM
  TGI: 6.24 µM
[6]
  GI50: 1.95 µM
  TGI: 13.9 µM
[7]
  GI50: 1.61 µM
  TGI: 33.1 µM
[10]
  GI50: 0.143 µM
  TGI: 0.509 µM
[8]
  GI50: 0.197 µM
  TGI: > 50 µM

## O=S(=O)(NCCCNc1nccc(-c2c(-c3cccc(F)c3)nc3occn23)n1)c1cccc2ccccc12
[9]
  GI50: 3.38 µM
  TGI: > 100 µM
[2]
  GI50: 3.71 µM
  TGI: > 100 µM
[3]
  GI50: 4.64 µM
  TGI: > 100 µM
[4]
  GI50: 4.94 µM
  TGI: > 100 µM
[6]
  GI50: 3.33 µM
  TGI: > 100 µM
[7]
  GI50: 2.52 µM
  TGI: 5.74 µM
[10]
  GI50: 3.75 µM
  TGI: > 100 µM
[8]
  GI50: 8.79 µM
  TGI: > 100 µM

## O=C(Nc1nc2c(s1)CCc1c-2c(Br)n(Cc2ccccc2)c1Br)c1ccccc1
[9]
  GI50: 4.26 µM
  TGI: > 100 µM
[2]
  GI50: 3.98 µM
  TGI: > 100 µM
[3]
  GI50: 8.05 µM
  TGI: > 100 µM
[4]
  GI50: 2.73 µM
  TGI: 11.9 µM
[6]
  GI50: 2.68 µM
  TGI: 33.4 µM
[7]
  GI50: > 100 µM
  TGI: > 100 µM
[10]
  GI50: 2.97 µM
  TGI: 35.9 µM
[8]
  GI50: 12.1 µM
  TGI: > 100 µM
